Laboratory results reported in patent US10174013B2, “Benzimidazole derivatives as kinase inhibitors” (SELVITA S.A., priority 2012, dated 2019).
Counter-ions that a name gives are not always drawn. Like-named read-outs stand apart in the source and are kept apart here.

What was measured:
SW-480 cells = assay: Growth inhibition, MTS assay, SW-480; assay type: cell-based, Human; conditions: 72 hours, MTS cell viability, read-out: SW-480 ED50
Source text: (§1) The following cell lines, were obtained and used in tests as outlined below: • Human myelomonocytic, biphenotypic leukemia MV4-11 cells (harboring a Flt3-ITD mutation); • Human Acute Myeloid Leukemia MOLM16 cells; • Human Acute Myeloid Leukemia MOLM13 cells (harboring a Flt3-ITD mutation); • Human Myeloid Leukemia KG-1 cells; • Human erythroleukemia HEL92 cells; • Human mantle cell lymphoma Jeko-1 cells; • Human hepatocellular carcinoma HepG2 cells; and • Human colon adenocarcinoma SW-480 cells.
(§2) The assays were carried out according to the following protocol, which is described as an example for the MV4-11 cells:
(§3) Ten thousand MV4-11 cells were inoculated into each well of a 96-well microplate (manufactured by Corning Corp.) using Iscove's MDM medium (culture medium) containing 10% fetal calf serum (FCS). The same day, a dimethyl sulfoxide (DMSO) solution of each test compound prepared in a concentration of 10 mmol/L was further diluted with DMSO to the desired concentrations (0.1, 0.5, 1, 2.5, 5 and 10 micromol/L), and the diluted solution was added to each well. The individual wells were further cultured in 5% carbon dioxide at 37° C. for 72 hours. […] Briefly, 10 μl MTS (3-(4,5-Dimethyl-2-thiazolyl)-5-(carboxymethoxyphenyl)-2-(4-sulfophenyl)-2H-tetrazolium was added to each well, and culturing was performed in 5% carbon dioxide at 37° C. for 2 hours. After this incubation and using a microplate spectrophotometer (Synergy 2 multi-mode microplate reader (BioTek)), the absorbance of each well was measured at 490 nm. The value for cells not incubated with a test compound was designated as 100%. By comparing these values with the absorbance difference obtained at the well in which each test compound was added, the cell viability (% viability) after treatment with the test compound was calculated.

CDK2/E = CDK2/E (Homo sapiens (Human), UniProt P24941); assay: ADP-Glo Kinase Assay, CDK2/E; assay type: biochemical; conditions: 1 μM compound; for inhibition at 1 µM: read-out: CDK2/E % INH (1 μM)
Method in brief: (§4)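 Compounds were diluted in assay buffer to 1000 nM and incubated with kinase, substrate and ATP at apparent Km. Remaining ATP was depleted, ADP converted to ATP and detected by luciferase; percent inhibition came from normalized luminescence.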

DYRK1 = DYRK1 (Homo sapiens (Human), UniProt Q13627); assay: ADP-Glo Kinase Assay, DYRK1; assay type: biochemical; conditions: 1 μM compound; for inhibition at 1 µM: read-out: DYRK1A % INH (1 μM)
Method in brief: as §4

Pim-1 = Pim-1 (Homo sapiens (Human), UniProt P11309); assay: ADP-Glo Kinase Assay, Pim-1; assay type: biochemical; conditions: 1 μM compound; for inhibition at 1 µM: read-out: Pim-1 % INH (1 μM)
Chain of Pim-1 (P11309 whole entry): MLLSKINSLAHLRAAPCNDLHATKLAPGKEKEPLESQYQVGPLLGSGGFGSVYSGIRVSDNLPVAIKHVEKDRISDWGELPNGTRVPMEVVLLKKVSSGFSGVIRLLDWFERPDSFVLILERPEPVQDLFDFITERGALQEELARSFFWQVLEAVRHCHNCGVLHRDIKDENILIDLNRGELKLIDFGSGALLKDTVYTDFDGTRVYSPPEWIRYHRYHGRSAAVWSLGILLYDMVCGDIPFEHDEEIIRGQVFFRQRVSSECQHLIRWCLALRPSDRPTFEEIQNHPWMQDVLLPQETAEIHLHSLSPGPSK
Method in brief: as §4

Jeko-1 cells = assay: Growth inhibition, MTS assay, Jeko-1; assay type: cell-based, Human; conditions: 72 hours, MTS cell viability, read-out: Jeko-1 ED50
Source text: as §1, §2, §3

HepG2 cells = assay: Growth inhibition, MTS assay, HepG2; assay type: cell-based, Human; conditions: MTS cell viability, read-out: HepG2 ED50
Pim-3 = Pim-3 (Homo sapiens (Human), UniProt Q86V86); assay: ADP-Glo Kinase Assay, Pim-3; assay type: biochemical; conditions: 1 μM compound; for inhibition at 1 µM: read-out: Pim-3 % INH (1 μM)
Method in brief: as §4

HEL92 cells = assay: Growth inhibition, MTS assay, HEL92; assay type: cell-based, Human; conditions: MTS cell viability, read-out: HEL92 ED50
FLT3wt = FLT3wt (Homo sapiens (Human), UniProt P36888); assay: ADP-Glo Kinase Assay, Flt3 wt; assay type: biochemical; conditions: 1 μM compound; for inhibition at 1 µM: read-out: Flt3wt % INH (1 μM)
Chain of FLT3wt (P36888 27-993): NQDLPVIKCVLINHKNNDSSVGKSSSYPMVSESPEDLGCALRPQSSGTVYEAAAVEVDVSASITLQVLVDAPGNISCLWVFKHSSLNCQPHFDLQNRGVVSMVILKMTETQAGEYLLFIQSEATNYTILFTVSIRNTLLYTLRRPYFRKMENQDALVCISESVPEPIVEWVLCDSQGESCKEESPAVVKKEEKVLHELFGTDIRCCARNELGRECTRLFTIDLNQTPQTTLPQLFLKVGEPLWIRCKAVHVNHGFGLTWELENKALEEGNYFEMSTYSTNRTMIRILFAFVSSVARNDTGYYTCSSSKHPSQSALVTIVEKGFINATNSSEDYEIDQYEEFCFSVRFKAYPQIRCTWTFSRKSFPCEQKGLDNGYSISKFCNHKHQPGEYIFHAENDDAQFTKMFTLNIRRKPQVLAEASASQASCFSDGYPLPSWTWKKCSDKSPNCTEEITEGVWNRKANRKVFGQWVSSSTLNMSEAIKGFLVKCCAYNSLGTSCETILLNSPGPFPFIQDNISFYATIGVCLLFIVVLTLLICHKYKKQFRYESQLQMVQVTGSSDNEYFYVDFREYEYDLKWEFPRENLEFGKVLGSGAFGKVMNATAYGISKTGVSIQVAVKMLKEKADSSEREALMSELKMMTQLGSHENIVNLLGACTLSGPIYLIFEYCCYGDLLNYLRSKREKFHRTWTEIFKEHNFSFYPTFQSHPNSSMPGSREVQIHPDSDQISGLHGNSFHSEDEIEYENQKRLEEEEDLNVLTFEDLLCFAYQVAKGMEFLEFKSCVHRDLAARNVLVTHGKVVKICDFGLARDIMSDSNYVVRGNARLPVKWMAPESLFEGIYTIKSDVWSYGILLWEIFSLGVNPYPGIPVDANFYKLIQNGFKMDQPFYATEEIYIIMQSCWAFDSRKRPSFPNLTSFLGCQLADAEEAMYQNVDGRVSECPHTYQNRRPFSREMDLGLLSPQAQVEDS
Method in brief: as §4

Pim-2 = Pim-2 (Homo sapiens (Human), UniProt Q9P1W9); assay: ADP-Glo Kinase Assay, Pim-2; assay type: biochemical; conditions: 1 μM compound; for inhibition at 1 µM: read-out: Pim-2 % INH (1 μM)
Chain of Pim-2 (Q9P1W9 whole entry): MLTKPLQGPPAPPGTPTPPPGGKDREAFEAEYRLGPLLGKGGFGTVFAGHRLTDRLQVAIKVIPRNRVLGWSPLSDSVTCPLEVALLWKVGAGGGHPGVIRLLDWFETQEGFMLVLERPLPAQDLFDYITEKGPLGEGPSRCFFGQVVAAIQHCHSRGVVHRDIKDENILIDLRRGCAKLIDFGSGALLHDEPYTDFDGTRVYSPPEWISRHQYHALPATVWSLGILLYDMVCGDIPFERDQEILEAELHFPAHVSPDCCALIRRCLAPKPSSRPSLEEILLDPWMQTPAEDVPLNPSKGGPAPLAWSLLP
Method in brief: as §4

MV4-11 cells = assay: Growth inhibition, MTS assay, MV4-11; assay type: cell-based, Human; conditions: MTS cell viability, read-out: MV4-11 ED50
hERG potassium channel = hERG potassium channel (Homo sapiens (Human), UniProt Q12809); assay: hERG automated patch clamp assay (QPatch HT)
Chain of hERG potassium channel (Q12809 whole entry): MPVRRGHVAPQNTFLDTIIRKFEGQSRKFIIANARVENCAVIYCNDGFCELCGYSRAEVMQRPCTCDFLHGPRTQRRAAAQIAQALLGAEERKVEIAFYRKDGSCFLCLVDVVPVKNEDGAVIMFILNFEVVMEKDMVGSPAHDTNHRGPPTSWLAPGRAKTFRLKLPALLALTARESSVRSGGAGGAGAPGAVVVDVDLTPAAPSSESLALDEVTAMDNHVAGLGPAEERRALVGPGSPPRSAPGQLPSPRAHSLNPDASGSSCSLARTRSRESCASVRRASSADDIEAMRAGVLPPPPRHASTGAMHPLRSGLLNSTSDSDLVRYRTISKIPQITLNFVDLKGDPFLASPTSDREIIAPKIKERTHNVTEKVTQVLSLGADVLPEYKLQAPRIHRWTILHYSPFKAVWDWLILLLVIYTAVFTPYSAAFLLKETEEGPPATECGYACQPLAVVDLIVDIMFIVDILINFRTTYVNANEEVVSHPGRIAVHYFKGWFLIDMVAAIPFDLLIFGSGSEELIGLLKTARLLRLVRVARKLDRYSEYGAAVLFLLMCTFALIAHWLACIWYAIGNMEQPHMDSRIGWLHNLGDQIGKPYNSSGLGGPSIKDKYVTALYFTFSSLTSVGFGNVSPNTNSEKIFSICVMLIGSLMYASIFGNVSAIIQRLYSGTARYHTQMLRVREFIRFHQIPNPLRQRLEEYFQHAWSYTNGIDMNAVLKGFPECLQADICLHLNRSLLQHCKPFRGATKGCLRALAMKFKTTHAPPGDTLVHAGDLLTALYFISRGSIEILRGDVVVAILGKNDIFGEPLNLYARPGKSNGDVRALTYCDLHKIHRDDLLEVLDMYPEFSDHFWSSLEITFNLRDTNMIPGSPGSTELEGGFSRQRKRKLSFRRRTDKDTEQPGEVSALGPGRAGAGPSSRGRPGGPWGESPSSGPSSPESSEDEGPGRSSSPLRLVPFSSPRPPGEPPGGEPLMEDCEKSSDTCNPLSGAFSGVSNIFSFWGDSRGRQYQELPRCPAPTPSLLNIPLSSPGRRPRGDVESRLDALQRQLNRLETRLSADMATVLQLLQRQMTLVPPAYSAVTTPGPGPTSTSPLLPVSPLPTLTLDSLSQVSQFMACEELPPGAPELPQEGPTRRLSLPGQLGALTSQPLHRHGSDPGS
Experimental: The hERG (human ether-A-go-go-related gene) channel corresponds to an important anti-target for potential new drugs since its inhibition may lead to sudden death. In order to establish whether the compounds of the present invention act on hERG, the following experiment was carried out.
The in vitro effects of the compounds indicated in Table 5 on the hERG potassium channel current (a surrogate for Iκr, the rapidly activating, delayed rectifier cardiac potassium current) expressed in mammalian cells were evaluated at room temperature using the QPatch HT® (Sophion Bioscience A/S, Denmark), an automatic parallel patch clamp system. Each compound indicated in Table 5 was evaluated at 0.1, 1, 3, 10 and 30 μM with each concentration tested in a minimum of two cells (n≥2). The duration of exposure to each compound concentration was 3 minutes.

Row | SMILES | IC50 (SW-480 cells; Homo sapiens, SW480) [nM] | inhibition at 1 µM (CDK2/E) [%] | inhibition at 1 µM (DYRK1) [%] | inhibition at 1 µM (Pim-1) [%] | IC50 (HepG2 cells; Homo sapiens, HepG2, 72 h) [nM] | inhibition at 1 µM (Pim-3) [%] | inhibition at 1 µM (FLT3wt) [%] | inhibition at 1 µM (Pim-2) [%] | IC50 (MV4-11 cells; Homo sapiens, MV4-11, 72 h) [nM] | IC50 (Jeko-1 cells; Homo sapiens, JeKo-1) [nM] | IC50 (HEL92 cells; Homo sapiens, 72 h) [nM] | further results
1 | CC(C)n1c(N2CCCC(N)C2)nc2c([N+](=O)[O-])c(Br)c(Br)cc21 (stereo not shown) [Example 1T] | 3200 | 7 | 27 | > 95 | 1300 | > 95 | 21 | 81 | 600 | 1700 | 5100 | 
2 | CCCn1c(NCCCN)nc2c([N+](=O)[O-])c(Br)c(Br)cc21 [Example 1P] |  |  |  |  |  |  |  |  |  |  |  | IC50 (SW-480 cells): 2900 nM; CDK2/E % INH (1 μM) (CDK2/E): <5%; DYRK1A % INH (1 μM) (DYRK1): 23%; IC50 (hERG potassium channel): 1880 nM; Pim-1 % INH (1 μM) (Pim-1): >95%; IC50 (HepG2 cells; 72 hours): 1500 nM; Pim-3 % INH (1 μM) (Pim-3): 77%; IC50 (HEL92 cells; 72 hours): 7000 nM; Flt3wt % INH (1 μM) (FLT3wt): 37%; Pim-2 % INH (1 μM) (Pim-2): 36%; IC50 (MV4-11 cells; 72 hours): 1400 nM
3 | CCn1c(N2CCNC(=O)C2)nc2c([N+](=O)[O-])c(Br)c(Br)cc21 [Example 22A, 4-(5,6-dibromo-1-ethyl-4-nitro-1H-1,3-benzodiazol-2-yl)piperazin-2-one] |  | < 5 |  | 65 |  | 28 | 8 |  |  |  |  | IC50 (hERG potassium channel; read-out: hERG IC50, automated patch clamp, room temperature, 0.1-30 μM, 3 minutes exposure): 10100 nM
4 | CCn1c(N2CCCC2CN)nc2c([N+](=O)[O-])c(Br)c(Br)cc21 (stereo not shown) [Example 1Z] | 6900 | < 5 |  | 67 | 6400 | 92 | < 5 |  | 1700 | 5600 |  | 
5 | CC(C)n1c(N2CCOC(CN)C2)nc2c([N+](=O)[O-])c(Br)c(Br)cc21 (stereo not shown) [Example 1AQ] |  | < 5 | 22 | > 95 | 4900 | 83 | < 5 | 40 | 2500 |  | 9600 | IC50 (hERG potassium channel; human, 3 min): 1860 nM
6 | CC(C)Cn1c(N2CCCC(N)C2)nc2c([N+](=O)[O-])c(Br)c(Br)cc21 (stereo not shown) [Example 1V] | 3100 | < 5 | 11 | > 95 | 900 | > 95 | < 5 |  | 700 | 2900 | 5600 | 
7 | CCCn1c(N2CCCC(N)C2)nc2c([N+](=O)[O-])c(Br)c(Br)cc21 (stereo not shown) [Example 1U] | 3300 | < 5 | 35 | > 95 | 1500 | > 95 | 9 | 37 | 600 | 1800 | 4700 | 
8 | NCCCNc1nc2c([N+](=O)[O-])c(Br)c(Br)cc2n1CC1CC1 [Example 1AB] |  |  |  |  |  |  |  |  |  |  |  | IC50 (SW-480 cells): 3200 nM; CDK2/E % INH (1 μM) (CDK2/E): <5%; Pim-1 % INH (1 μM) (Pim-1): >95%; IC50 (Jeko-1 cells): 1200 nM; IC50 (HepG2 cells; 72 hours): 2300 nM; Pim-3 % INH (1 μM) (Pim-3): 87%; IC50 (HEL92 cells; 72 hours): 5800 nM; Flt3wt % INH (1 μM) (FLT3wt): <5%; Pim-2 % INH (1 μM) (Pim-2): 46%; IC50 (MV4-11 cells; 72 hours): 2800 nM

Second part, led by results:

Row | IC50 (SW-480 cells; Homo sapiens, SW480) [nM] | inhibition at 1 µM (CDK2/E) [%] | inhibition at 1 µM (DYRK1) [%] | inhibition at 1 µM (Pim-1) [%] | IC50 (HepG2 cells; Homo sapiens, HepG2, 72 h) [nM] | inhibition at 1 µM (Pim-3) [%] | inhibition at 1 µM (FLT3wt) [%] | inhibition at 1 µM (Pim-2) [%] | IC50 (MV4-11 cells; Homo sapiens, MV4-11, 72 h) [nM] | SMILES | IC50 (Jeko-1 cells; Homo sapiens, JeKo-1) [nM] | IC50 (HEL92 cells; Homo sapiens, 72 h) [nM] | further results
9 | 500 |  |  |  | 1200 |  |  |  | 1100 | CCn1c(N2CCN(CCCN3CCNCC3)CC2)nc2c([N+](=O)[O-])c(Br)c(Br)cc21 [Example 22R, 5,6-dibromo-1-ethyl-4-nitro-2-{4{3-(piperazin-1-yl)propyl]piperazin-1-yl}-1H-1,3-benzodiazole] |  | 2900 | IC50 (hERG potassium channel): 1780 nM
10 | 3200 | 5 | 50 | 87 | 1600 | 71 | 37 | 42 | 500 | O=[N+]([O-])c1c(Br)c(Br)cc2c1nc(N1CCNCC1)n2C1CC1 [Example 21A, 5,6-dibromo-1-cyclopropyl-4-nitro-2-(piperazin-1-yl)-1H-1,3-benzodiazole trifluoroacetate] | 600 | 1900 | 
11 | 1800 | 15 | 72 | 79 | 900 | 56 | 25 | 63 | 5500 | CC(C)=CCn1c(N2CCNCC2)nc2c([N+](=O)[O-])c(Br)c(Br)cc21 [Example 2E, 5,6-dibromo-1-(3-methylbut-2-en-1-yl)-4-nitro-2-(piperazin-1-yl)-1H-1,3-benzodiazole hydrochloride] | 1600 | 5400 | 
12 | 1200 | < 5 | 17 | 80 | 1300 | > 95 | < 5 |  | 1900 | CCn1c(NC2CCCCC2N)nc2c([N+](=O)[O-])c(Br)c(Br)cc21 (stereo not shown) [Example 22L, 1-N-(5,6-dibromo-1-ethyl-4-nitro-1H-1,3-benzodiazol-2-yl)cyclohexane-1,2-diamine] |  | 3200 | IC50 (hERG potassium channel): 850 nM
13 | 6000 |  |  |  | > 10000 |  |  |  | 7900 | CCn1c(NC2CCC(O)CC2)nc2c([N+](=O)[O-])c(Br)c(Br)cc21 (stereo not shown) [Example 22B, 4-[(5,6-dibromo-1-ethyl-4-nitro-1H-1,3-benzodiazol-2-yl)amino]cyclohexan-1-ol] | 3000 | 8800 | 
